Reference: patent US20220213060A1, “Crystal Form of Quinazolinone Compound and Preparation Method Therefor” (Luoxin Healthcare Science and Technology Development …, priority 2019, published 2022)
Read-outs that look alike come from different tables or passages of the source.

Assays:
[1] = Solid stability test of crystal form A (influencing factors and accelerated conditions, HPLC/XRPD); format: physicochemical
Method: 1.5 High Performance Liquid Chromatograph Method
Sample concentration: 0.5 mg/mL
The stability of the crystal form A of the compound represented by formula (I) was investigated according to the Guideline for Stability Testing of APIs and Formulations (Chinese Pharmacopoeia 2015 Edition IV General Rule 9001).
5 mg of the crystal form A of the compound represented by formula (I) was weighed separately, placed in a dry and clean glass bottle, in duplicate, spread into a thin layer, as a formal test sample, the two samples were placed under the test conditions of influencing factors (60° C., 92.5% relative humidity) and accelerated conditions (30° C./65% relative humidity, 40° C./75% relative humidity and 60° C./75% relative humidity), the samples were fully exposed, covered with aluminum foil and pierced with small holes. Sampling and analysis were performed on day 5, day 10, and 1 month. Samples placed under illumination (total illumination 1200000 Lux·hr, near ultraviolet 200 w·hr/m^2) were completely exposed at room temperature.

[2] = tested on: human ovarian cancer SKOV-3 (PIK3CA H1047R mutation); test: In vivo pharmacodynamic study, SKOV-3 nude mouse subcutaneous xenograft tumor model; design: species or system BALB/c nude mice; conditions: for T/C % / TGI %: oral once a day for 28 days
Method: Human SKOV-3 ovarian cancer cells with PIK3CA H1047R mutation. This experiment evaluated the efficacy of the crystal form A of the represented by formula (I) in a human ovarian cancer xenograft tumor model.
Cell culture: Human ovarian cancer SKOV-3 cells were cultured in vitro in a single layer, the culture condition was RPMI-1640 medium with 10% fetal bovine serum, and the cells were incubated in 5% CO2 at 37° C. Digestion and passage treatment with trypsin-EDTA was carried out twice a week. When the cell saturation was 80%-90% and the number reached the requirement, the cells were collected, counted and inoculated.
Animals: BALB/c nude mice, female, 6-8 weeks old, weighing 18-20 g. A total of 67 animals were required, and provided by Beijing Vital River Biotechnology Co., Ltd.
Tumor inoculation: 0.2 mL (10×10^6 cells) of SKOV-3 cells (with matrigel in a volume ratio of 1:1) were subcutaneously inoculated on the right back of each mouse, group administration was started when the average tumor volume reached 150 mm^3-200 mm^3.
Tumor-bearing mice in each administration group had good tolerance to the tested compounds.

[3] = PK test of plasma on the last day of administration in the BT-474 xenograft study; format: in vivo, BALB/c nude mice; conditions: BT-474 tumor-bearing nude mice
Method: 0.5-1 hours after administration, the blood concentration reached the peak. The plasma exposure at the dose to play the effect was 69 300 nM*h.

[4] = Beagle dog absorption test (pharmacokinetics); format: in vivo, Beagle dogs
Method: Beagle dogs were given the crystal form A of the compound represented by formula (I) by single or multiple oral administration and single intravenous injection respectively, with 6 dogs in each group, half male and half female. The single oral doses were 0.3, land 3 mg/kg respectively; the multiple doses were 1 mg/kg, once a day for 7 consecutive days; the single intravenous dose was 0.3 mg/kg. According to the drug plasma concentration-time curve, the pharmacokinetic parameters were calculated, the results are shown in Table 15. The vehicle for drug preparation in group 1 was 5% HP-beta-CD, 5% solutol, pH=8 aqueous solution, the vehicles for groups 2, 3, 4 were 0.5% MC, 0.2% Tween80 aqueous solution.

[5] = 30° C., relative humidity 65%, open, 1 month
[6] = 30° C., relative humidity 65%, open, Day 10
[7] = 40° C., relative humidity 75%, open, 1 month
[8] = 40° C., relative humidity 75%, open, Day 10
[9] = 60° C., relative humidity 75%, open, 1 month
[10] = 60° C., relative humidity 75%, open, Day 10
[11] = High humidity (25° C./92.5% relative humidity, open), Day 5
[12] = High humidity (25° C./92.5% relative humidity, open), Day 10
[13] = High temperature (60° C., open), Day 5
[14] = High temperature (60° C., open), Day 10
[15] = Illumination (total illumination 1.2 × 106 Lux · hr/near ultraviolet 200 w · hr/m^2, open), Day 10
[16] = In the absence of light, Day 10
[17] = 10 mg/kg, listed as crystal form A of the compound represented by formula (I)
[18] = 20 mg/kg, listed as crystal form A of the compound represented by formula (I)
[19] = 40 mg/kg, listed as crystal form A of the compound represented by formula (I)
[20] = both sexes, beagle, dog, plasma, po, 0.3 mg/kg, male and female Beagle dogs, single
[21] = both sexes, dog, plasma, iv, male and female Beagle dogs, vein, 0.3 mg/kg, single
[22] = both sexes, dog, plasma, male and female Beagle dogs, oral, 0.3 mg/kg, single
[23] = both sexes, dog, plasma, male and female Beagle dogs, oral, 1 mg/kg once a day, day 7
[24] = both sexes, dog, plasma, male and female Beagle dogs, oral, 1 mg/kg, day 1
[25] = both sexes, dog, plasma, male and female Beagle dogs, oral, 3 mg/kg, single
[26] = male and female beagle dogs, oral, 1 mg/kg for 7 consecutive days, 7 days after the administration
[27] = male and female beagle dogs, oral, 1 mg/kg, 1 day after the administration

Content of the crystal form A of the compound represented by formula (I) (%) [1, 5]: 101.64%
Total impurity content (%) [1, 5]: 0.14%
Content of the crystal form A of the compound represented by formula (I) (%) [1, 6]: 104.28%
Total impurity content (%) [1, 6]: 0.14%
Content of the crystal form A of the compound represented by formula (I) (%) [1, 7]: 103.86%
Total impurity content (%) [1, 7]: 0.16%
Content of the crystal form A of the compound represented by formula (I) (%) [1, 8]: 103.79%
Total impurity content (%) [1, 8]: 0.15%
Content of the crystal form A of the compound represented by formula (I) (%) [1, 9]: 103.30%
Total impurity content (%) [1, 9]: 0.14%
Content of the crystal form A of the compound represented by formula (I) (%) [1, 10]: 103.63%
Total impurity content (%) [1, 10]: 0.14%
Content of the crystal form A of the compound represented by formula (I) (%) ([1]; Day 0): 103.08%
Total impurity content (%) ([1]; Day 0): 0.14%
Content of the crystal form A of the compound represented by formula (I) (%) [1, 11]: 103.08%
Total impurity content (%) [1, 11]: 0.14%
Content of the crystal form A of the compound represented by formula (I) (%) [1, 12]: 103.95%
Total impurity content (%) [1, 12]: 0.14%
Content of the crystal form A of the compound represented by formula (I) (%) [1, 13]: 104.39%
Total impurity content (%) [1, 13]: 0.14%
Content of the crystal form A of the compound represented by formula (I) (%) [1, 14]: 102.00%
Total impurity content (%) [1, 14]: 0.14%
Content of the crystal form A of the compound represented by formula (I) (%) [1, 15]: 103.04%
Total impurity content (%) [1, 15]: 0.14%
Content of the crystal form A of the compound represented by formula (I) (%) [1, 16]: 102.57%
Total impurity content (%) [1, 16]: 0.15%
Stability (conclusion of the solid stability test) ([1]; all test conditions of Table 7): good stability
Plasma exposure at the dose to play the effect ([3]; oral 10 mg/kg, last day of administration): 69 300 nM*h
Plasma exposure with the increase of administration dose ([3]; oral 10, 20, 40 mg/kg): increased linearly
Time after administration at which the blood concentration reached the peak ([3]; oral, last day of administration): 0.5 to 1 h
AUC(0-t) ([4]; both sexes, beagle, dog, plasma, iv, 0.3 mg/kg, male and female Beagle dogs, vein, single): 1.47 ± 0.353 µM·h
AUC(0-t) [4, 20]: 1.29 ± 0.715 µM·h
bioavailability [4, 20]: 87.8%
AUC(0-t) ([4]; both sexes, beagle, dog, plasma, po, 1 mg/kg, male and female Beagle dogs, oral, 1 mg/kg once a day, day 7): 5.88 µM·h
AUC(0-t) ([4]; both sexes, beagle, dog, plasma, po, 1 mg/kg, male and female Beagle dogs, oral, 1 mg/kg, day 1): 4.98 ± 0.946 µM·h
AUC(0-t) ([4]; both sexes, beagle, dog, plasma, po, 3 mg/kg, male and female Beagle dogs, single): 14.8 ± 2.51 µM·h
C0 [4, 21]: 512 nM
clearance [4, 21]: 6.18 ± 1.49 mL/min/kg
half-life [4, 21]: 6.32 ± 1.62 h
Vd ([4]; both sexes, dog, plasma, iv, male and female Beagle dogs, vein, 0.3 mg/kg, single, read-out: Vdss): 2.47 ± 0.391 L/kg
Tmax [4, 22]: 2 ± 1.1 h
half-life [4, 22]: 6.92 ± 3.16 h
Cmax ([4]; both sexes, dog, plasma, male and female Beagle dogs, oral, 0.3 mg/kg, single, read-out: Cmax): 158 ± 68.4 nM
Cmax at 7 days [4, 23]: 850 nM
Tmax at 7 days [4, 23]: 1.33 h
half-life at 7 days [4, 23]: 5.18 ± 0.487 h
Tmax [4, 24]: 1.67 ± 0.516 h
half-life [4, 24]: 5 ± 1.44 h
Cmax ([4]; both sexes, dog, plasma, male and female Beagle dogs, oral, 1 mg/kg, day 1, read-out: Cmax): 656 ± 30.7 nM
Tmax [4, 25]: 3.08 ± 1.5 h
half-life [4, 25]: 6.55 ± 1.76 h
Cmax ([4]; both sexes, dog, plasma, male and female Beagle dogs, oral, 3 mg/kg, single, read-out: Cmax): 1880 ± 274 nM
AUC0-last [4, 26]: 5.88 ± 0.697 µM·h
Cmax [4, 26]: 850±106 nm
AUC0-last [4, 27]: 4.98 ± 0.946 µM·h
Cmax [4, 27]: 656±30.7 nm
SMILES: CNC(=O)[C@H](C)Cn1cnc2ccc(-c3cnc(OC)c(NS(=O)(=O)c4ccc(F)cc4F)c3)cc2c1=O
Anti-tumor effect (in words) ([2]; 10 mg/kg): a certain anti-tumor effect
T/C % ([2]; 10 mg/kg): 69.17%
TGI % ([2]; 10 mg/kg): 30.45%
T/C % [2, 17]: 69.17%
TGI % [2, 17]: 30.45%
Anti-tumor effect (in words) ([2]; 20 mg/kg): a certain anti-tumor effect
T/C % ([2]; 20 mg/kg): 60.61%
TGI % ([2]; 20 mg/kg): 41.42%
T/C % [2, 18]: 60.61%
TGI % [2, 18]: 41.42%
Anti-tumor effect (in words) ([2]; 40 mg/kg group): significant anti-tumor effects
T/C % ([2]; 40 mg/kg): 37.79%
TGI % ([2]; 40 mg/kg): 69.16%
T/C % [2, 19]: 37.79%
TGI % [2, 19]: 69.16%
